Among the data in patent publication US20060252807A1, “Novel ortho-terphenyl inhibitors of p38 kinase and methods of treating inflammatory disorders” (Kalypsys, Inc., priority 2005, published 2006) are IC50 values, retold here.

Structures are written as SMILES.

The test deals with T1, active p38 alpha enzyme (Upstate Biotechnology) (Homo sapiens, UniProt Q16539).
T1 construct: purchased Upstate Biotechnology
T1 sequence (Q16539 whole entry): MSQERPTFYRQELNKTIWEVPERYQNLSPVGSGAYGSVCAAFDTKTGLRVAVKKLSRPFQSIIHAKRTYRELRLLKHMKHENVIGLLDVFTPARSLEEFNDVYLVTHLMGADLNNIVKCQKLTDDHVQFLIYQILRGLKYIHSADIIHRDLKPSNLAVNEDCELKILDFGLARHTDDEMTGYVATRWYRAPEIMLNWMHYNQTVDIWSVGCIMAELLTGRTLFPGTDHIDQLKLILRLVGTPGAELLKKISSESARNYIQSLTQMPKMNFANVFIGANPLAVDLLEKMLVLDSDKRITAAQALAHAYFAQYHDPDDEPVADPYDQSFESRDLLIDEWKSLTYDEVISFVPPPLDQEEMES
Put plainly: p38α biochemical assay (ATP turnover, luminescent detection, Cambrex PKlight). To be noted: p38α kinase; Table 1 Biological Activity. In outline: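 Active human p38α was incubated with full-length MapkapK2 protein as substrate and 1.4 uM ATP (final) for 2 hours at 30C. Buffer: 200 mM Tris, 100 mM MgCl2, 1.5 mM EGTA, 4 mM CaCl2, 20 mM MOPS, 1 mM EDTA, 1% glycerol, 0.1% β-mercaptoethanol, 1 mg/ml BSA. Total ATP turnover read by luminescence.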
As usually defined, the IC50 is the point on the concentration scale where inhibition reaches its midpoint. `CC(C)NC(=O)c1csc(-c2c(-c3ccc(F)cc3)noc2CNCCc2c[nH]c3ccccc23)n1` [Example 1485] showed an IC50 of over 1000 nM. Under `CC(C)NC(=O)c1csc(-c2c(-c3ccc(F)cc3)noc2CNCc2ccc(C(C)(C)C)cc2)n1` [Example 1486] stands over 1000 nM. The molecule `CC(C)NC(=O)c1csc(-c2c(-c3ccc(F)cc3)noc2CNCCCN(C)c2ccccc2)n1` [Example 1487] showed an IC50 of over 1000 nM. `CC(C)NC(=O)c1csc(-c2c(-c3ccc(F)cc3)noc2CNCC2(O)CCCCC2)n1` [Example 1488] returned an IC50 of over 1000 nM. For `COc1cc(CNCc2onc(-c3ccc(F)cc3)c2-c2nc(C(=O)NC(C)C)cs2)cc(OC)c1` [Example 1489] the value was over 1000 nM; for `COc1ccc(CNCc2onc(-c3ccc(F)cc3)c2-c2nc(C(=O)NC(C)C)cs2)cc1OC` [Example 1490], over 1000 nM; for `CC(C)NC(=O)c1csc(-c2c(-c3ccc(F)cc3)noc2CNCC(=O)c2ccccc2)n1` [Example 1491], over 1000 nM.

`CC(C)NC(=O)c1csc(-c2c(-c3ccc(F)cc3)noc2CNCCCNC(=O)OC(C)(C)C)n1` [Example 1492]: the half-maximal inhibitory concentration (IC50) is over 1000 nM. Regarding `CC(C)NC(=O)c1csc(-c2c(-c3ccc(F)cc3)noc2CNCc2ccc(C(F)(F)F)cc2)n1` [Example 1493], the IC50 is over 1000 nM. Under `CC(C)NC(=O)c1csc(-c2c(-c3ccc(F)cc3)noc2CNCc2cccc(C(F)(F)F)c2)n1` [Example 1494] stands over 1000 nM. As to `CC(C)NC(=O)c1csc(-c2c(-c3ccc(F)cc3)noc2CNCc2ccc(Cl)c(Cl)c2)n1` [Example 1495], the IC50 is over 1000 nM. For the molecule `CC(C)NC(=O)c1csc(-c2c(-c3ccc(F)cc3)noc2CNCc2ccc(Cl)cc2Cl)n1` [Example 1496], the IC50 is over 1000 nM. For `CC(C)NC(=O)c1csc(-c2c(-c3ccc(F)cc3)noc2CNC2CCN(Cc3ccccc3)C2)n1` (centres unmarked) [Example 1497] the value was over 1000 nM; for `COc1ccc(OC)c(CCNCc2onc(-c3ccc(F)cc3)c2-c2nc(C(=O)NC(C)C)cs2)c1` [Example 1498], over 1000 nM; for `CC(C)NC(=O)c1csc(-c2c(-c3ccc(F)cc3)noc2CNCc2ccc(N(C)C)cc2)n1` [Example 1499], over 1000 nM. Molecule `COc1ccc(CNCc2onc(-c3ccc(F)cc3)c2-c2nc(C(=O)NC(C)C)cs2)cc1O` [Example 1500] came in with an IC50 of over 1000 nM. As for `CC(C)NC(=O)c1csc(-c2c(-c3ccc(F)cc3)noc2CNC2CCN(Cc3ccccc3)CC2)n1` [Example 1501], the IC50 is over 1000 nM. As for `CC(C)NC(=O)c1csc(-c2c(-c3ccc(F)cc3)noc2CNCc2ccccc2OC(F)(F)F)n1` [Example 1502], the IC50 was over 1000 nM. In turn, `CC(C)NC(=O)c1csc(-c2c(-c3ccc(F)cc3)noc2CNCCc2ccc(S(N)(=O)=O)cc2)n1` [Example 1503] displayed an IC50 of over 1000 nM. The molecule `COc1ccc(C(=O)CNCc2onc(-c3ccc(F)cc3)c2-c2nc(C(=O)NC(C)C)cs2)cc1` [Example 1504] had an IC50 of over 1000 nM. With `CC(C)NC(=O)c1csc(-c2c(-c3ccc(F)cc3)noc2CNCCc2ccc3c(c2)OCO3)n1` [Example 1505], the IC50 is over 1000 nM. Turning to `CC(C)NC(=O)c1csc(-c2c(-c3ccc(F)cc3)noc2CNCCC(c2ccccc2)c2ccccc2)n1` [Example 1506], the IC50 was over 1000 nM. For `Cc1ccc(S(=O)(=O)NCCNCc2onc(-c3ccc(F)cc3)c2-c2nc(C(=O)NC(C)C)cs2)cc1` [Example 1507], the IC50 is over 1000 nM.

The molecule `CC(C)NC(=O)c1csc(-c2c(-c3ccc(F)cc3)noc2CN(C)C)n1` [Example 1508] registered an IC50 of over 1000 nM.

As to `CC(C)NC(=O)c1csc(-c2c(-c3ccc(F)cc3)noc2CN2CCOCC2)n1` [Example 1509], the IC50 is over 1000 nM. For `CCN(C)Cc1onc(-c2ccc(F)cc2)c1-c1nc(C(=O)NC(C)C)cs1` [Example 1511] the value was over 1000 nM; for `C#CCN(C)Cc1onc(-c2ccc(F)cc2)c1-c1nc(C(=O)NC(C)C)cs1` [Example 1512], over 1000 nM; for `CCN(CC)Cc1onc(-c2ccc(F)cc2)c1-c1nc(C(=O)NC(C)C)cs1` [Example 1513], over 1000 nM.

Take `CCCN(C)Cc1onc(-c2ccc(F)cc2)c1-c1nc(C(=O)NC(C)C)cs1` [Example 1514]: the IC50 is at most 1000 nM.

Molecule `CC(C)NC(=O)c1csc(-c2c(-c3ccc(F)cc3)noc2CN(C)CCO)n1` [Example 1515] gave an IC50 of at most 1000 nM. On to `CC(C)NC(=O)c1csc(-c2c(-c3ccc(F)cc3)noc2CN(C)CCC#N)n1` [Example 1516], for which the IC50 was over 1000 nM. For `CC(C)CN(C)Cc1onc(-c2ccc(F)cc2)c1-c1nc(C(=O)NC(C)C)cs1` [Example 1517] the value was over 1000 nM. `CCN(Cc1onc(-c2ccc(F)cc2)c1-c1nc(C(=O)NC(C)C)cs1)C(C)C` [Example 1518]: the IC50 is over 1000 nM. Turning to `CCCCN(C)Cc1onc(-c2ccc(F)cc2)c1-c1nc(C(=O)NC(C)C)cs1` [Example 1519], the IC50 is over 1000 nM. Consider `CCN(CCO)Cc1onc(-c2ccc(F)cc2)c1-c1nc(C(=O)NC(C)C)cs1` [Example 1520], for which the IC50 is over 1000 nM. For `CC(C)NC(=O)c1csc(-c2c(-c3ccc(F)cc3)noc2CN2CCSC2)n1` [Example 1521] the value was over 1000 nM; for `CC(C)NC(=O)c1csc(-c2c(-c3ccc(F)cc3)noc2CN2CCCCC2C)n1` (centres unmarked) [Example 1522], over 1000 nM. Take `CC1CCN(Cc2onc(-c3ccc(F)cc3)c2-c2nc(C(=O)NC(C)C)cs2)CC1` [Example 1523]: the IC50 is over 1000 nM.

In the case of `CC(C)NC(=O)c1csc(-c2c(-c3ccc(F)cc3)noc2CN2CCN(C)CC2)n1` [Example 1524], the IC50 is over 1000 nM. As for `CC(C)NC(=O)c1csc(-c2c(-c3ccc(F)cc3)noc2CN2CCCC2CO)n1` (centres unmarked) [Example 1525], the IC50 was at most 1000 nM. `CC(C)NC(=O)c1csc(-c2c(-c3ccc(F)cc3)noc2CN2CCC[C@@H]2CO)n1` [Example 1526] showed a 50% inhibitory concentration (IC50) of over 1000 nM. For `CCCCN(CC)Cc1onc(-c2ccc(F)cc2)c1-c1nc(C(=O)NC(C)C)cs1` [Example 1527] the value was over 1000 nM; for `CCCN(CCC)Cc1onc(-c2ccc(F)cc2)c1-c1nc(C(=O)NC(C)C)cs1` [Example 1528], over 1000 nM. In turn, `CC(C)NC(=O)c1csc(-c2c(-c3ccc(F)cc3)noc2CN2CCSCC2)n1` [Example 1529] had a concentration for half-maximal inhibition (IC50) of over 1000 nM.

`CC(C)NC(=O)c1csc(-c2c(-c3ccc(F)cc3)noc2CN(CCO)CCO)n1` [Example 1530] had an IC50 of over 1000 nM. Under `CC1CC(C)CN(Cc2onc(-c3ccc(F)cc3)c2-c2nc(C(=O)NC(C)C)cs2)C1` (centres unmarked) [Example 1531] stands over 1000 nM. Take `CC(C)NC(=O)c1csc(-c2c(-c3ccc(F)cc3)noc2CN(C)C2CCCCC2)n1` [Example 1532]: the half-inhibitory concentration (IC50) was over 1000 nM.

Molecule `CC(C)NC(=O)c1csc(-c2c(-c3ccc(F)cc3)noc2CN2C(C)CCCC2C)n1` (centres unmarked) [Example 1533] displayed an IC50 of over 1000 nM.

With `CC(C)NC(=O)c1csc(-c2c(-c3ccc(F)cc3)noc2CN2CCC(N(C)C)C2)n1` (centres unmarked) [Example 1534], the IC50 was over 1000 nM.

Turning to `CC(C)NC(=O)c1csc(-c2c(-c3ccc(F)cc3)noc2CN2C[C@@H](C)N[C@@H](C)C2)n1` [Example 1535], the half-inhibitory concentration (IC50) was over 1000 nM. For the molecule `CC(C)NC(=O)c1csc(-c2c(-c3ccc(F)cc3)noc2CN2CCCC(CO)C2)n1` (centres unmarked) [Example 1536], the concentration for half-maximal inhibition (IC50) is over 1000 nM. `COC[C@@H]1CCCN1Cc1onc(-c2ccc(F)cc2)c1-c1nc(C(=O)NC(C)C)cs1` [Example 1537] showed a 50% inhibitory concentration (IC50) of over 1000 nM. Under `CC(C)NC(=O)c1csc(-c2c(-c3ccc(F)cc3)noc2CN2CC(C)OC(C)C2)n1` (centres unmarked) [Example 1538] stands over 1000 nM; under `CC(C)NC(=O)c1csc(-c2c(-c3ccc(F)cc3)noc2CN2CCCCC2CO)n1` (centres unmarked) [Example 1539], over 1000 nM. For `CCN(CCCCO)Cc1onc(-c2ccc(F)cc2)c1-c1nc(C(=O)NC(C)C)cs1` [Example 1540] the value was over 1000 nM. Turning to `CC(C)NC(=O)c1csc(-c2c(-c3ccc(F)cc3)noc2CN2Cc3ccccc3C2)n1` [Example 1541], the IC50 is over 1000 nM.

For `CC(C)NC(=O)c1csc(-c2c(-c3ccc(F)cc3)noc2CN(C)Cc2ccccc2)n1` [Example 1542], the IC50 is over 1000 nM.

Molecule `CCN(Cc1onc(-c2ccc(F)cc2)c1-c1nc(C(=O)NC(C)C)cs1)C1CCCCC1` [Example 1543] had an IC50 of over 1000 nM.

In turn, `CC(C)NC(=O)c1csc(-c2c(-c3ccc(F)cc3)noc2CN2CCC(C(N)=O)CC2)n1` [Example 1544] came in with an IC50 of over 1000 nM. `CC(=O)N[C@H]1CCN(Cc2onc(-c3ccc(F)cc3)c2-c2nc(C(=O)NC(C)C)cs2)C1` [Example 1545] came in with an IC50 of over 1000 nM. Under `CC(C)NC(=O)c1csc(-c2c(-c3ccc(F)cc3)noc2CN2CCCC(C(N)=O)C2)n1` (centres unmarked) [Example 1547] stands over 1000 nM. Under `CC(C)NC(=O)c1csc(-c2c(-c3ccc(F)cc3)noc2CN2CCCCC2CCO)n1` (centres unmarked) [Example 1548] stands over 1000 nM.

`CC(C)NC(=O)c1csc(-c2c(-c3ccc(F)cc3)noc2CN2CCc3ccccc3C2)n1` [Example 1549] displayed an IC50 of over 1000 nM.

On to `CCN(Cc1ccccc1)Cc1onc(-c2ccc(F)cc2)c1-c1nc(C(=O)NC(C)C)cs1` [Example 1550], for which the IC50 is over 1000 nM. With `CC(C)NC(=O)c1csc(-c2c(-c3ccc(F)cc3)noc2CN(C)CCc2ccccc2)n1` [Example 1552], the IC50 was over 1000 nM.

As to `CC(C)NC(=O)c1csc(-c2c(-c3ccc(F)cc3)noc2CN(C)CCc2ccccn2)n1` [Example 1553], the IC50 was over 1000 nM. For `CC(C)NC(=O)c1csc(-c2c(-c3ccc(F)cc3)noc2CN(C)CCc2ccccn2)n1` [Example 1554] the value was at most 1000 nM. For the molecule `CC(C)NC(=O)c1csc(-c2c(-c3ccc(F)cc3)noc2CN2CCCC3CCCCC32)n1` (centres unmarked) [Example 1555], the IC50 is over 1000 nM.
